Results reported in patent US10167262B2, “Herbicidal substituted 3-arylpyrazoles” (FMC CORPORATION, priority 2014, dated 2019).

Columns and labels:
Assay in all cases: Test E pre-/postemergence greenhouse test, plant response rating 0-100
Type in all cases: in vivo
[1] = tested on: waterhemp (common waterhemp, Amaranthus rudis); conditions: scale 0 to 100; for Waterhemp plant response rating: Preemergence
Outline: (§1)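 Rated visually against controls 14-21 days after treatment on a 0-100 scale (100 = complete control). Pre- and postemergence sprays used a non-phytotoxic solvent mixture with surfactant. Preemergence seeds were in silt loam; postemergence plants were in peat-based medium at the 1- to 4-leaf stage (2-18 cm).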

[2] = tested on: palmer pigweed (Amaranthus palmeri); conditions: scale 0 to 100; for Pigweed, Palmer plant response rating: Preemergence
Outline: as §1

[3] = tested on: field bindweed (Convolvulus arvensis); conditions: scale 0 to 100
Outline: as §1

[4] = tested on: sandbur (southern sandbur, Cenchrus echinatus); conditions: Cenchrus echinatus, post-emergence, Postemergence, scale 0 to 100
Outline: as §1

[5] = tested on: hairy beggarticks (Bidens pilosa); conditions: Preemergence, scale 0 to 100
Outline: as §1

[6] = tested on: wild poinsettia (Euphorbia heterophylla); conditions: scale 0 to 100; for Poinsettia, Wild plant response rating: Preemergence
Outline: as §1

soybean (Glycine max) = conditions: scale 0 to 100; for Soybean plant response rating: Preemergence
Outline: as §1

corn (Zea mays) = conditions: scale 0 to 100
Outline: as §1

[7] = tested on: Brazilian crabgrass (Digitaria horizontalis); conditions: Digitaria horizontalis, post-emergence, Postemergence, scale 0 to 100, read-out: Plant response rating, Crabgrass, Brazil
Outline: as §1

[8] = tested on: fall panicum (Panicum dichotomiflorum); conditions: Panicum dichotomiflorum, post-emergence, Postemergence, scale 0 to 100
Outline: as §1

[9] = tested on: dayflower (Virginia (VA) dayflower, Commelina virginica); conditions: scale 0 to 100
Outline: as §1

[10] = tested on: arrowleaf sida (Sida rhombifolia); conditions: scale 0 to 100
Outline: as §1

Work on Cn1cc(C(=O)c2ccccc2)c(-c2cc(Cl)cc(Cl)c2)n1 [Compound 54, [3-(3,5-dichlorophenyl)-1-methyl-1H-pyrazol-4-yl]phenylmethanone] yielded a pest or weed control at 62 g/ha ([1]; Amaranthus tuberculatus, post-emergence, Postemergence, 62 g ai/ha) of 60%, a pest or weed control at 125 g/ha ([1]; Amaranthus tuberculatus, post-emergence, Postemergence, 125 g ai/ha) of 70% and a pest or weed control at 250 g/ha ([1]; Amaranthus tuberculatus, post-emergence, Postemergence, 250 g ai/ha) of 95%. For the same molecule, the “Waterhemp plant response rating” value ([1]; 125 g ai/ha) was 96, the “Waterhemp plant response rating” value ([1]; 250 g ai/ha) was 99 and the pest or weed control at 31 g/ha ([2]; Amaranthus palmeri, post-emergence, Postemergence, 31 g ai/ha) was 40%. The pest or weed control at 62 g/ha ([2]; Amaranthus palmeri, post-emergence, Postemergence, 62 g ai/ha) was 60%, the pest or weed control at 125 g/ha ([2]; Amaranthus palmeri, post-emergence, Postemergence, 125 g ai/ha) was 75% and the pest or weed control at 250 g/ha ([2]; Amaranthus palmeri, post-emergence, Postemergence, 250 g ai/ha) was 95%. For the same molecule, the “Pigweed, Palmer plant response rating” value ([2]; 125 g ai/ha) was 86, the “Pigweed, Palmer plant response rating” value ([2]; 250 g ai/ha) was 95 and the pest or weed control at 16 g/ha ([3]; Convolvulus arvensis, post-emergence, Postemergence, 16 g ai/ha) was 0%. It also gave a pest or weed control at 31 g/ha ([3]; Convolvulus arvensis, post-emergence, Postemergence, 31 g ai/ha) of 0%, a pest or weed control at 62 g/ha ([3]; Convolvulus arvensis, post-emergence, Postemergence, 62 g ai/ha) of 0% and a pest or weed control at 125 g/ha ([3]; Convolvulus arvensis, post-emergence, Postemergence, 125 g ai/ha) of 0%. The pest or weed control at 250 g/ha ([3]; Convolvulus arvensis, post-emergence, Postemergence, 250 g ai/ha) was 0%, the pest or weed control at 1000 g/ha ([3]; Convolvulus arvensis, pre-emergence, Preemergence, 1000 g ai/ha) was 0% and the “Field Bindweed plant response rating” value ([3]; Preemergence, 125 g ai/ha) was 0. The “Field Bindweed plant response rating” value ([3]; Preemergence, 250 g ai/ha) was 0, the pest or weed control at 31 g/ha ([4]; 31 g ai/ha) was 0% and the pest or weed control at 62 g/ha ([4]; 62 g ai/ha) was 0%. It also gave a pest or weed control at 125 g/ha ([4]; 125 g ai/ha) of 0%, a pest or weed control at 250 g/ha ([4]; 250 g ai/ha) of 0% and a pest or weed control at 1000 g/ha ([5]; Bidens pilosa, pre-emergence, 1000 g ai/ha) of 90%. The “Beggarticks plant response rating” value ([5]; 125 g ai/ha) was 0, the “Beggarticks plant response rating” value ([5]; 250 g ai/ha) was 23 and the pest or weed control at 31 g/ha ([6]; Euphorbia heterophylla, post-emergence, Postemergence, 31 g ai/ha, read-out: Plant response rating, Poinsettia, Wild) was 0%. The pest or weed control at 62 g/ha ([6]; Euphorbia heterophylla, post-emergence, Postemergence, 62 g ai/ha, read-out: Plant response rating, Poinsettia, Wild) was 0%, the pest or weed control at 125 g/ha ([6]; Euphorbia heterophylla, post-emergence, Postemergence, 125 g ai/ha, read-out: Plant response rating, Poinsettia, Wild) was 0% and the pest or weed control at 250 g/ha ([6]; Euphorbia heterophylla, post-emergence, Postemergence, 250 g ai/ha, read-out: Plant response rating, Poinsettia, Wild) was 0%. For the same molecule, the “Poinsettia, Wild plant response rating” value ([6]; 125 g ai/ha) was 80, the “Poinsettia, Wild plant response rating” value ([6]; 250 g ai/ha) was 23 and the plant injury at 31 g/ha (soybean (Glycine max); Glycine max, post-emergence, Postemergence, 31 g ai/ha) was 0%. The plant injury at 62 g/ha (soybean (Glycine max); Glycine max, post-emergence, Postemergence, 62 g ai/ha) was 0%, the plant injury at 125 g/ha (soybean (Glycine max); Glycine max, post-emergence, Postemergence, 125 g ai/ha) was 0% and the plant injury at 250 g/ha (soybean (Glycine max); Glycine max, post-emergence, Postemergence, 250 g ai/ha) was 0%. For the same molecule, the “Soybean plant response rating” value (soybean (Glycine max); 125 g ai/ha) was 0, the “Soybean plant response rating” value (soybean (Glycine max); 250 g ai/ha) was 12 and the “Corn plant response rating” value (corn (Zea mays); Preemergence, 125 g ai/ha) was 0. For the same molecule, the “Corn plant response rating” value (corn (Zea mays); Preemergence, 250 g ai/ha) was 0, the Corn plant response rating (crop injury, 0 = no effect, 100 = complete kill) at 16 g/ha (corn (Zea mays); Zea mays, post-emergence, Postemergence, 16 g ai/ha) was 0% and the Corn plant response rating (crop injury, 0 = no effect, 100 = complete kill) at 31 g/ha (corn (Zea mays); Zea mays, post-emergence, Postemergence, 31 g ai/ha) was 0%. It also gave a Corn plant response rating (crop injury, 0 = no effect, 100 = complete kill) at 62 g/ha (corn (Zea mays); Zea mays, post-emergence, Postemergence, 62 g ai/ha) of 0%, a Corn plant response rating (crop injury, 0 = no effect, 100 = complete kill) at 125 g/ha (corn (Zea mays); Zea mays, post-emergence, Postemergence, 125 g ai/ha) of 0% and a Corn plant response rating (crop injury, 0 = no effect, 100 = complete kill) at 250 g/ha (corn (Zea mays); Zea mays, post-emergence, Postemergence, 250 g ai/ha) of 0%. It also gave a Corn plant response rating (crop injury, 0 = no effect, 100 = complete kill) at 1000 g/ha (corn (Zea mays); Zea mays, pre-emergence, Preemergence, 1000 g ai/ha) of 0%, a pest or weed control at 16 g/ha ([7]; 16 g ai/ha) of 0% and a pest or weed control at 31 g/ha ([7]; 31 g ai/ha) of 0%. The pest or weed control at 62 g/ha ([7]; 62 g ai/ha) was 0%, the pest or weed control at 125 g/ha ([7]; 125 g ai/ha) was 0% and the pest or weed control at 250 g/ha ([7]; 250 g ai/ha) was 0%. For the same molecule, the pest or weed control at 31 g/ha ([8]; 31 g ai/ha) was 0%, the pest or weed control at 62 g/ha ([8]; 62 g ai/ha) was 0% and the pest or weed control at 125 g/ha ([8]; 125 g ai/ha) was 0%. The pest or weed control at 250 g/ha ([8]; 250 g ai/ha) was 0%, the pest or weed control at 16 g/ha ([9]; Commelina virginica, post-emergence, Postemergence, 16 g ai/ha) was 0% and the pest or weed control at 31 g/ha ([9]; Commelina virginica, post-emergence, Postemergence, 31 g ai/ha) was 0%. It also gave a pest or weed control at 62 g/ha ([9]; Commelina virginica, post-emergence, Postemergence, 62 g ai/ha) of 0%, a pest or weed control at 125 g/ha ([9]; Commelina virginica, post-emergence, Postemergence, 125 g ai/ha) of 0% and a pest or weed control at 250 g/ha ([9]; Commelina virginica, post-emergence, Postemergence, 250 g ai/ha) of 0%. For the same molecule, the pest or weed control at 1000 g/ha ([9]; Commelina virginica, pre-emergence, Preemergence, 1000 g ai/ha) was 0%, the “Dayflower, VA plant response rating” value ([9]; Preemergence, 125 g ai/ha) was 0 and the “Dayflower, VA plant response rating” value ([9]; Preemergence, 250 g ai/ha) was 0. The “Arrowleaf Sida plant response rating” value ([10]; Preemergence, 125 g ai/ha) was 43, the “Arrowleaf Sida plant response rating” value ([10]; Preemergence, 250 g ai/ha) was 80 and the pest or weed control at 16 g/ha ([10]; Sida rhombifolia, post-emergence, Postemergence, 16 g ai/ha) was 30%. The pest or weed control at 31 g/ha ([10]; Sida rhombifolia, post-emergence, Postemergence, 31 g ai/ha) was 50%, the pest or weed control at 62 g/ha ([10]; Sida rhombifolia, post-emergence, Postemergence, 62 g ai/ha) was 50% and the pest or weed control at 125 g/ha ([10]; Sida rhombifolia, post-emergence, Postemergence, 125 g ai/ha) was 65%. It also gave a pest or weed control at 250 g/ha ([10]; Sida rhombifolia, post-emergence, Postemergence, 250 g ai/ha) of 75% and a pest or weed control at 1000 g/ha ([10]; Sida rhombifolia, pre-emergence, Preemergence, 1000 g ai/ha) of 100%.
